Our source for the IC50 values is US8202862B2, “Substituted piperidines” (Bayer Intellectual Property GmbH, priority 2009, dated 2012).

For assay [1], the target named is T1, human protease activated receptor 1 (PAR1) (Homo sapiens, UniProt P25116).
T1 construct: the cell stably expresses the endogenous human PAR1 receptor; endogenous in cells; host or cells: recombinant HEK293-derived cell line; only the mitochondrial aequorin is recombinant
T1 sequence (P25116 22-425): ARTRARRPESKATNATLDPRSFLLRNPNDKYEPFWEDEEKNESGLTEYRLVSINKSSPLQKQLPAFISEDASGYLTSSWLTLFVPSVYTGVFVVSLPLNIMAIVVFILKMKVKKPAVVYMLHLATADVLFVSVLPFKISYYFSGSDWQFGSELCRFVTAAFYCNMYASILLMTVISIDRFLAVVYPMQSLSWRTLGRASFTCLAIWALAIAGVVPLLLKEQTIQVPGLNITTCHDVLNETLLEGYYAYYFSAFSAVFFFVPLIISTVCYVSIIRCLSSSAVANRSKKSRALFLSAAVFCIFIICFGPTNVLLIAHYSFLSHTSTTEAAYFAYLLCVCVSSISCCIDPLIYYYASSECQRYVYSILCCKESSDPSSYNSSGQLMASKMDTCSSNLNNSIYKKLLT
Nature of the assay: Cellular functional in vitro test (PAR1 test cell, aequorin luminescence). In kind it is cell-based. The conditions noted are these: HEK293-derived PAR1 test cell; PAR1 agonist at EC50; calcium/aequorin luminescence. From the text:
Cellular Functional in vitro Test
A recombinant cell line is used to identify […] of the human protease activated receptor 1 (PAR1) and to quantify the activity of the substances described herein. The cell is originally derived from a human embryonal kidney cell (HEK293; ATCC: American Type Culture Collection, Manassas, Va. 20108, U.S.A.). The test cell line constitutively expresses a modified form of the calcium-sensitive photoprotein aequorin which, after reconstitution with the cofactor coelenterazine, emits light when the free calcium concentration in the inner mitochondrial compartment is increased (Rizzuto R, Simpson A W, Brini M, Pozzan T.; Nature 1992, 358, 325-327). Additionally, the cell stably expresses the endogenous human PAR1 receptor and the endogenous purinergic receptor P2Y2. The resulting PAR1 test cell responds to stimulation of the endogenous PAR1 or P2Y2 receptor with an intracellular release of calcium ions, which can be quantified through the resulting aequorin luminescence with a suitable luminometer (Milligan G, Marshall F, Rees S, Trends in Pharmacological Sciences 1996, 17, 235-237).
For the testing of the substance specificity, the effect thereof after activation of the endogenous PAR1 receptor is compared with the effect after activation of the endogenous purinergic P2Y2 receptor which utilizes the same intracellular signal path.
Test procedure: The cells are plated out two days (48 hours) before the test in culture medium (DMEM F12, supplemented with 10% FCS, 2 mM glutamine, 20 mM HEPES, 1.4 mM pyruvate, 0.1 mg/ml gentamycin, 0.15% sodium bicarbonate; BioWhittaker Cat. # BE04-687Q; B-4800 Verviers, Belgium) in 384-well microtitre plates and kept in a cell incubator (96% atmospheric humidity, 5% v/v CO2, 37° C.). On the day of the test, the culture medium is replaced by a Tyrode's solution (in mM: 140 sodium chloride, 5 potassium chloride, 1 magnesium chloride, 2 calcium chloride, 20 glucose, 20 HEPES), which additionally contains the cofactor coelenterazine (25 μM) and glutathione (4 mM), and the microtitre plate is then incubated for a further 3-4 hours. The test substances are then pipetted onto the microtitre plate, and 5 minutes after the transfer of the test substances into the wells of the microtitre plate the plate is transferred into the luminometer, a PAR1 agonist concentration which corresponds to EC50 is added and the resulting light signal is immediately measured in the luminometer. To distinguish an antagonist substance action from a toxic action, the endogenous purinergic receptor is immediately subsequently activated with agonist (ATP, final concentration 10 μM) and the resulting light signal is measured.

Assay [2] has as its system platelet-rich plasma. Description: Platelet aggregation in plasma (triggered by thrombin receptor agonist TRAP6, SFLLRN; turbidimetry according to Born). Type of assay: cell-based. The settings on record: 10 min, human platelet-rich plasma, 10 min at 37° C. The method, then:
1.c) Platelet Aggregation in Plasma
Platelet aggregation is determined using blood from healthy volunteers of both genders, who had not received any thrombocyte aggregation-influencing medication for the last ten days. The blood is taken up into monovettes (Sarstedt, Nümbrecht, Germany) which contain, as anticoagulant, sodium citrate 3.8% (1 part citrate+9 parts blood). To obtain platelet-rich plasma, the citrated whole blood is centrifuged at 140 g for 20 min.
For the aggregation measurements, aliquots of the platelet-rich plasma with increasing concentrations of test substance are incubated at 37° C. for 10 min. Subsequently, aggregation is triggered by addition of a thrombin receptor agonist (TRAP6, SFLLRN) in an aggregometer and determined at 37° C. by means of the turbidimetry method according to Born (Born, G. V. R., Cross M. J., The Aggregation of Blood Platelets; J. Physiol. 1963, 168, 178-195). The SFLLRN concentration leading to maximum aggregation is, if appropriate, determined individually for each donor.
To calculate the inhibitory effect, the maximum increase in light transmission (amplitude of the aggregation curve in %) is determined within 5 minutes after addition of the agonist in the presence and absence of test substance, and the inhibition is calculated. The inhibition curves are used to calculate the concentration which inhibits aggregation by 50%.

For `COCCc1noc(C2CC(c3ccc(OC(F)(F)F)cc3)CN(C(=O)N3CC[S+]([O-])CC3)C2)n1` (racemic) [Example 1, {3-[3-(2-Methoxyethyl)-1,2,4-oxadiazol-5-yl]-5-[4-(trifluoromethoxy)phenyl]piperidin-1-yl}-(oxidothiomorpholin-4-yl)methanone], in assay [1], the IC50 is 43 nM.

Consider `O=C(N1CC[S+]([O-])CC1)N1CC(c2ccc(C(F)(F)F)cc2)CC(c2nc(C3CC3)no2)C1` (racemic) [Example 20, {3-(3-Cyclopropyl-1,2,4-oxadiazol-5-yl)-5-[4-(trifluoromethyl)phenyl]piperidin-1-yl}(1-oxidothio-morpholin-4-yl)methanone], for which the IC50 in assay [1] was found to be 23 nM.

For the compound `COC1(c2noc(C3CC(c4ccc(CC(F)(F)F)cc4)CN(C(=O)N4CCS(=O)(=O)CC4)C3)n2)CC1` (racemic) [Example 61, (1,1-Dioxidothiomorpholin-4-yl){3-[3-(1-methoxycyclopropyl)-1,2,4-oxadiazol-5-yl]-5-[4-(2,2,2-trifluoroethyl)phenyl]piperidin-1-yl}methanone], in assay [1], the IC50 amounted to 15.7 nM.

On to `COCCc1noc(C2CC(c3ccc(OC(F)(F)F)cc3)CN(C(=O)N3CCS(=O)(=O)CC3)C2)n1` (single isomer, unassigned) [Example 8, (1,1-Dioxidothiomorpholin-4-yl){3-[3-(2-methoxyethyl)-1,2,4-oxadiazol-5-yl]-5-[4-(trifluoromethoxy)phenyl]piperidin-1-yl}methanone], for which the IC50 came to 33 nM in assay [1] and 0.29 nM in assay [2].

Regarding `O=C(N1CCS(=O)(=O)CC1)N1CC(c2ccc(OC(F)(F)F)cc2)CC(c2nc(C3CC3)no2)C1` (single isomer, unassigned) [Example 10, {3-(3-Cyclopropyl-1,2,4-oxadiazol-5-yl)-5-[4-(trifluoromethoxy)phenyl]piperidin-1-yl}(1,1-dioxidothiomorpholin-4-yl)methanone], the IC50 in assay [1] worked out at 8 nM; in assay [2] it was 0.49 nM.

Regarding `CCc1ccc(C2CC(c3nc(C4CC4)no3)CN(C(=O)N3CCS(=O)(=O)CC3)C2)cc1` (single isomer, unassigned) [Example 15, [3-(3-Cyclopropyl-1,2,4-oxadiazol-5-yl)-5-(4-ethylphenyl)piperidin-1-yl](1,1-dioxidothiomorpholin-4-yl)methanone], the IC50 in assay [1] was 5.1 nM.

In the case of `CCOCCc1noc(C2CC(c3ccc(C(F)(F)F)cc3)CN(C(=O)N3CCS(=O)(=O)CC3)C2)n1` (single isomer, unassigned) [Example 31, (1,1-Dioxidothiomorpholin-4-yl){3-[3-(2-ethoxyethyl)-1,2,4-oxadiazol-5-yl]-5-[4-(trifluoromethyl)phenyl]piperidin-1-yl}methanone], in assay [1], the IC50 was 32 nM.

With `CC(F)(F)c1ccc(C2CC(c3nc(C4CC4)no3)CN(C(=O)N3CC[S+]([O-])CC3)C2)cc1` (single isomer, unassigned) [Example 52, {3-(3-Cyclopropyl-1,2,4-oxadiazol-5-yl)-5-[4-(1,1-difluoroethyl)phenyl]piperidin-1-yl}-(1-oxido-thiomorpholin-4-yl)methanone], the IC50 in assay [1] was determined as 4.7 nM; in assay [2], 0.58 nM.

With `CC(F)(F)c1ccc(C2CC(c3nc(C4CC4)no3)CN(C(=O)N3CCS(=O)(=O)CC3)C2)cc1` (single isomer, unassigned) [Example 54, {3-(3-Cyclopropyl-1,2,4-oxadiazol-5-yl)-5-[4-(1,1-difluoroethyl)phenyl]piperidin-1-yl}-(1,1-dioxidothiomorpholin-4-yl)methanone], the IC50 in assay [1] was 4.3 nM.

In turn, `CCc1ccc(C2CC(c3nc(CCOC)no3)CN(C(=O)N3CCS(=O)(=O)CC3)C2)cc1` (stereo not shown) [Example 13, (1,1-Dioxidothiomorpholin-4-yl){3-(4-ethylphenyl)-5-[3-(2-methoxyethyl)-1,2,4-oxadiazol-5-yl]-piperidin-1-yl}methanone] showed an IC50 in assay [2] of 0.17 nM.
